What was measured:
[1] = Loading of doxorubicin into liposome polymer matrices; type: physicochemical; conditions: polymer/lipid:drug ratio approximately at least 50:1, mol/mol
Procedure: The spheres that were subjected to ultrafiltration or column washes were stored for a variable amount of time in a minimal amount of 3 M sucrose, 750 mM Histidine HCl to maintain hydration at 20° C. and 5° C. Following storage the loading efficiency of doxorubicin into the spheres was assessed (table 1). For drug loading a procedure that could easily be implement in the pharmacy was employed. Specifically a water bath or dry heat block was allowed to equilibrate at 58° C. (55°-60° C.). For each 1 mL packed volume of microspheres, 50 mg of lyophilized doxorubicin (for storage lactose and parahydroxybenzoate may be added) in a solution of 8 mL was prepared. This solution was then added to the equilibrated heating source for 10 min. Next a 2 mL concentrated solution of sodium carbonate was injected into the microsphere solution. The 2 mL of microspheres and 8 mL of doxorubicin were then combined creating a solution with pH of 7 (this step should be done within 2 minutes of adding sodium carbonate to the microspheres). The mixture should be shaken vigorously and allowed to sit for at least 10 minutes in the heat block or water bath and then brought to room temperature. After this period the spheres can be stored up to 10 hours at 25° C. and for 7 days at 2° C.-8° C. […]

[2] = test system: tumors growing within the liver; conditions: rabbit model for liver cancer; cited from earlier work

COc1cccc2c1C(=O)c1c(O)c3c(c(O)c1C2=O)C[C@@](O)(C(=O)CO)C[C@@H]3O[C@H]1C[C@H](N)[C@H](O)[C@H](C)O1 [doxorubicin]
added doxorubicin that becomes vesicle entrapped as doxorubicin-citrate [1]: greater than 90%

O=C(O)C(=O)CBr [3-bromopyruvate]
effect of bolus injection on non-tumor tissue [2]: damages surrounding liver tissue

Reference: US20110104052A1, “METHODS OF SYNTHESIS AND USE OF CHEMOSPHERES” (THE JOHNS HOPKINS UNIVERSITY, priority 2007, published 2011)
